Results published in US20240000786A1, “COMPOSITION FOR ENHANCING INTRA-CELLULAR NITRIC OXIDE GENERATION” (INSTITUTE OF LIFE SCIENCES, priority 2020, published 2024).

T1: iNOS-NOSIP protein interaction (Homo sapiens, UniProt Q9Y314)
T1 construct: made in house; host or cells: E. coli BL21 (DE3)
T1 sequence (Q9Y314 with tags, fused parts or gaps): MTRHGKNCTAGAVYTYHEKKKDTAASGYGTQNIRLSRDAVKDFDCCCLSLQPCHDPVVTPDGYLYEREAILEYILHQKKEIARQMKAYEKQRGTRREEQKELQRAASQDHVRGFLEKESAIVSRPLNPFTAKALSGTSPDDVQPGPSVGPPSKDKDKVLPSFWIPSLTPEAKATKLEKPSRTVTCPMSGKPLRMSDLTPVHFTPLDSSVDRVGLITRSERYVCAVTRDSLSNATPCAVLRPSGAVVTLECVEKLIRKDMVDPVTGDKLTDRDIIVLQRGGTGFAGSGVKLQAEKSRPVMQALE

T2: rNOSIP (Homo sapiens, UniProt Q9Y314)
T2 construct: made in house; host or cells: E. coli BL21 (DE3)
T2 sequence (Q9Y314 with tags, fused parts or gaps): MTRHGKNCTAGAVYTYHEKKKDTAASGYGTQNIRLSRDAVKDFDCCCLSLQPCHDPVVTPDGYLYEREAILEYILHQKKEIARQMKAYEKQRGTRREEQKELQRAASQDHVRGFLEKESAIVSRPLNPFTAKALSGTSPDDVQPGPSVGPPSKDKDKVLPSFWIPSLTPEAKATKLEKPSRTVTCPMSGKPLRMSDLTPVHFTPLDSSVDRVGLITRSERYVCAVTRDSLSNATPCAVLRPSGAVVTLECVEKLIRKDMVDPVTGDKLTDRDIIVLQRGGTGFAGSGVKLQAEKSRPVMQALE


How the values were obtained:
[1] = biological target: T1, iNOS-NOSIP protein interaction; assay: SPR: inhibition of rNOSIP association with immobilized recombinant iNOS by iNOS peptides / small molecules; type: binding; conditions: for inhibition hierarchy of iNOS-NOSIP protein interaction: SPR, rank order; for Kd: Kd/Ka; for inhibition of binding of NOSIP with iNOS ligand by small molecules: rNOSIP 250 nM, small molecules 1 uM, SPR (FIG. 4)
Protocol: Four different iNOS peptides were synthesized commercially by China peptides and iNOS peptides were used for molecular interaction studies with immobilized recombinant iNOS purified protein. The iNOS peptides mediated inhibition of rNOSIP and riNOS protein association in Bio-Rad XPR 36 surface plasmon resonance biosensor instrument. […] 250 nM of iNOS peptides was used for inhibition assay with immobilized ligand(recombinant iNOS) in SPR analysis. Similar condition and concentration of small molecules were used for inhibition of recombinant protein association with immobilized ligand. […] The rNOSIP protein was incubated with iNOS derived peptide/small molecules for 30 minutes in ice for inhibition assay before the SPR application in our study. The molecular interaction was carried out at 20° C. and kinetic parameters were determined, after fitting the association and dissociation curves to a 1:1 (Langmuir)-binding model. An activated channel without immobilized ligand was used to evaluate nonspecific binding. The response curves were also recorded on control surfaces. Results were calculated after subtraction of the control values using the ProteOn Manager software.
The collected sensorgram data were processed by reference subtraction using double-referencing with the in-line blank buffer. The integrated ProteOn Manager software was used to fit the data with the Langmuir model describing a 1:1 binding stoichiometry. Ka is the association rate constant, Kd is the dissociation rate constant, and KD is the equilibrium dissociation constant, defined by the Kd/Ka ratio for the analytes-ligand binding.
The five small molecules bind with NOSIP and inhibit the association of recombinant NOSIP and recombinant iNOS. The rNOSIP protein was incubated with iNOS derived peptide or small molecules for 30 minutes in ice prior to SPR application. The molecular interaction was carried out at 20° C. and kinetic parameters were determined, after fitting the association and dissociation curves to a 1:1 (Langmuir)-binding model. An activated channel without immobilized ligand (recombinant iNOS) was used to evaluate nonspecific binding. The response curves were also recorded on control surfaces. Results were calculated after subtraction of the control values using the ProteOn Manager software.
The collected sensorgram data were processed by reference subtraction using double-referencing with the in-line blank buffer. The integrated ProteOn
Manager software was used to fit the data with the Langmuir model describing a 1:1 binding stoichiometry. Ka is the association rate constant, Kd is the dissociation rate constant, and KD is the equilibrium dissociation constant, defined by the Kd/Ka ratio for the analytes—ligand binding.

rNOSIP = biological target: T2, rNOSIP; assay: Isothermal titration calorimetry (ITC) of rNOSIP with small molecules / 18 mer iNOS peptide (PP2); type: binding; conditions: for ΔG / ΔH / −TΔS / Kd / N (Sites): ITC 25° C.; for Kd / N (Sites): small molecule/peptide in cell, NOSIP in syringe; for Fold Change (KD): ITC KD relative to iNOS-Peptide2 = 1; for SM binding affinity with NOSIP, hierarchy: ITC, rank order
Protocol: The 18 mer iNOS peptide (PP2) and small molecules were used for physical association of molecules in calorimetric analysis. The molecular association leads to thermodynamics changes such as Gibb's free energy change (ΔG), entropy change (ΔS), enthalpy change (ΔH) and number of binding sites (N) in interacting solution were investigated by isothermal calorimetry MICROCAL PEQ (Malvern) at 25° C. […] The experiment consisted of multiple injections and each injection contained 1.5 μl of binding solution (recombinant NOSIP solution) with 120 second spacing time between subsequent injections. Sequential titrations were carried out and the sample solution was continuously stirred at 270 rpm by the rotating paddle attached to the syringe needle. Multiple injections of NOSIP made into the sample cell containing interacting solution of peptide and small molecules. The titration curves were analyzed using the analysis software provided with the calorimeter.
The 18 mer iNOS peptide (PP2) and five small molecules were used to analyze physical association in calorimetric analysis. The molecular association leads to thermodynamics changes such as Gibb's free energy change (ΔG), entropy change (ΔS), enthalpy change (ΔH) and number of binding sites (N) in interacting solution were investigated by isothermal calorimetry MICROCAL PEQ (Malvern) at 25° C. […] The experiment consisted of multiple injections and each injection contained 1.5 μl of binding solution with 120 second spacing time between subsequent injections. Sequential titrations were carried out and the sample solution was continuously stirred at 270 rpm by the rotating paddle attached to the syringe needle. Multiple injections of NOSIP made into the sample cell containing interacting solution of peptide and small molecules. The titration curves were analyzed using the analysis software provided with the calorimeter.

Mouse BMDMs = assay: Nitric oxide production by individual small molecules in mouse BMDM; type: cell-based
human PBMCs = assay: NO levels (Griess) in human PBMCs, small molecules alone or in combination; type: cell-based; conditions: 0.1 and 0.01 μM, 24 h
Protocol: PBMCs (1 million cells/ml) from healthy individuals' blood was isolated and were treated with or without NOSIP antagonists (either alone or mixture of equimolar concentration of all 5 small molecule antagonists at 0.1 and 0.01 μM) for 30 min in triplicate wells and incubated for 24 h at 37° C. The culture supernatants were analysed by […] for nitrite concentration using Griess reagent, and the NO levels are shown as mean percent increase over untreated control. The panel on the right top of FIG. 10 depict nitrite levels by individual small molecules in human PBMCs. […] Thus a combined mixture of 5 small molecules will be desirable for use in mouse as well as humans.

recombinant iNOS = biological target: T3, recombinant iNOS (Homo sapiens, UniProt P35228); assay: iNOS enzyme activity in presence of recombinant NOSIP, Griess reaction; type: biochemical; conditions: iNOS 0.5 μM, NOSIP 0.5 to 5 μM, substrate L-Arginine
T3 construct: made in house; host or cells: E. coli BL21 (DE3)
Protocol: The human iNOS oxygenase domain (SEQ ID No.: 24) containing 424 nucleotide sequence and NOSIP gene (SEQ ID No.: 23) containing 301 nucleotide sequences were synthesized by GenScript and cloned in pET22b expression vector. The recombinant pET22b: iNOS and pET22b: NOSIP plasmid was used to transform competent E. coli BL21 (DE3) cells. The proteins were over expressed using 0.2 mM IPTG at 25° C. The harvested cells were resuspended and sonicated in 20 mM Tris-HCl, pH 7.5, 200 mM NaCl, 0.05% Triton X-100 and protease inhibitor (Sigma). The expressed proteins were purified by nickel nitrilotriacetic acid column using 250 mM imidazole and gel filtration chromatography. The protein was quantified by Bradford assay (Sigma) and integrity of purified protein was checked on 12% SDS-PAGE.
In a […] assay increasing concentrations of recombinant NOSIP were mixed with recombinant iNOS along with substrate L-Arginine and the resultant product, […] was quantified by using Griess reaction kit. […] Statistical significance was assessed by one way ANOVA, Tukey& #39;s Multiple Comparison Test.

[2] = analyte rNOSIP alone or + peptide/small molecule, ligand r iNOS, 20° C., 1:1 Langmuir
[3] = analyte rNOSIP alone or + peptide/small molecule, ligand r iNOS, 20° C.

T3 sequence (P35228 with tags, fused parts or gaps limits assumed): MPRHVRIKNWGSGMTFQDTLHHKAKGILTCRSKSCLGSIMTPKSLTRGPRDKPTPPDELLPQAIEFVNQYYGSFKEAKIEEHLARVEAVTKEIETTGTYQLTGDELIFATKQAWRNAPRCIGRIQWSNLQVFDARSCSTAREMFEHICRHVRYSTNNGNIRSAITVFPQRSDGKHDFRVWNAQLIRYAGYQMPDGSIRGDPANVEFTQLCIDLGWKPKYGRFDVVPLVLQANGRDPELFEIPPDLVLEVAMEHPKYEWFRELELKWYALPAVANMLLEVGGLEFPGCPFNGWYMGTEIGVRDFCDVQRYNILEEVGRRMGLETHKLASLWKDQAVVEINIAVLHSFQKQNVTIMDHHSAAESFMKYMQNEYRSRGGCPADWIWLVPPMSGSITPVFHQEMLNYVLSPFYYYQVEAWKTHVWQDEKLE

Molecule	inhibition hierarchy of iNOS-NOSIP protein interaction [1]	Ka(1/Ms) [1, 2]	Kd [1, 3] [µM]	inhibition of binding of NOSIP with iNOS ligand by small molecules [1]	ΔG (rNOSIP) [kcal/mol]	ΔH (rNOSIP) [kcal/mol]	−TΔS (rNOSIP) [kcal/mol]	Kd (rNOSIP) [nM]	N (Sites) (rNOSIP)	Fold Change (KD) (rNOSIP)	SM binding affinity with NOSIP, hierarchy (rNOSIP)	nitric oxide produced, individual small molecules compared (Mouse BMDMs)	nitric oxide produced, individual small molecules compared (human PBMCs)	kon ([1]; analyte rNOSIP alone or + peptide/small molecule, ligand r iNOS, 20° C., 1:1 Langmuir, read-out: Ka) [M⁻¹ s⁻¹]	inhibition of iNOS enzyme activity (Griess) (recombinant iNOS)
CCN(c1ccccc1)S(=O)(=O)c1ccc(Cl)c(NC(=O)COC(=O)c2ccccc2SCC(=O)Nc2ccc3c(c2)OCO3)c1 [MCULE-8094061955, ({2-chloro-5-[ethyl(phenyl)sulfamoyl]phenyl}carbamoyl)methyl 2-({[(2H-1,3-benzodioxol-5-yl)carbamoyl]methyl}sulfanyl) benzoate]	CC4>CC11>CC6>CC5>CC13>iNOS Peptide 2	6.7e^−01 1/Ms	809	inhibit the binding of NOSIP with iNOS ligand	-8.61	-9.07 ± 0.251	0.459	493 ± 63.2	0.993	0.899	CC4>CC11>CC6>CC5>CC13>Peptide 2 (iNOS)	more effective with mouse cells			
COc1cc(C)ccc1OCc1nc(C(=O)NCc2n[nH]c3c2CCC3)co1 [MCULE-4640800528, N-({1H,4H,5H,6H-cyclopenta[c]pyrazol-3-yl}methyl)-2[(2-methoxy-4-methylphenoxy)methyl]-1,3-oxazole-4-carboxamide]	CC4>CC11>CC6>CC5>CC13>iNOS Peptide 2		870	inhibit the binding of NOSIP with iNOS ligand	-8.70	-8.54 ± 0.255	-0.159	420 ± 57.5	1.04	0.766	CC4>CC11>CC6>CC5>CC13>Peptide 2 (iNOS)		more effective than molecules in human cells	0.563	
NOSIP: recombinant Nitric oxide synthase interacting protein expressed in E. coli BL21 (DE3) (protein, UniProt Q9Y314 1-301, looked up) Nitric oxide …: MTRHGKNCTAGAVYTYHEKKKDTAASGYGTQNIRLSRDAVKDFDCCCLSLQPCHDPVVTPDGYLYEREAILEYILHQKKEIARQMKAYEKQRGTRREEQKELQRAASQDHVRGFLEKESAIVSRPLNPFTAKALSGTSPDDVQPGPSVGPPSKDKDKVLPSFWIPSLTPEAKATKLEKPSRTVTCPMSGKPLRMSDLTPVHFTPLDSSVDRVGLITRSERYVCAVTRDSLSNATPCAVLRPSGAVVTLECVEKLIRKDMVDPVTGDKLTDRDIIVLQRGGTGFAGSGVKLQAEKSRPVMQA		9.57e^+04 1/Ms	0.00711												inhibits enzyme activity of iNOS
